Measured values reported in PMC11758220, “Identification of a Privileged Scaffold for Inhibition of Sterol Transport Proteins through the Synthesis and Ring Distortion of Diverse, Pseudo-Natural Products” (ACS Central Science, 2025).

Experiments:
[1] = biological target: T1, Aster-A (Homo sapiens, UniProt Q96CP6); assay: Fluorescence polarisation (FP) competition with NBD-cholesterol, Aster-A; format: binding; settings: for IC50: mean of three experiments run in technical duplicates; for inhibition at 10 µM / Aster-A (FP) inhibition: single dose, Dose = 10 µM
T1 construct: Aster-A(359-547); GST (PreScission-cleavable) (N, cleaved yes); made in house; host or cells: E. coli OverExpress C41
T1 sequence (Q96CP6 359-547): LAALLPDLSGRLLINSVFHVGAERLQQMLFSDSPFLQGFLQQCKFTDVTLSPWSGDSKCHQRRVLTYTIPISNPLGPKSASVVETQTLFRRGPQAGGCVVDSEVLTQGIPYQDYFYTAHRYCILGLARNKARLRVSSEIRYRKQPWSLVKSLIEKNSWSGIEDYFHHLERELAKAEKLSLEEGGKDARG
From the text: (§1) Protein expression constructs
(§2) Human ASTER domains of Aster-A(359-547), -B(364-552) and -C(318-504) were subcloned into a pGEX-6p-2rbs vector, thus introducing the cloning artifact ‘GPLGS’.3 The pGEX-6P-1-GST-OSBP(377- […]
(§3) a gift from James H. Hurley (University of California).4 The pHIS_2His6_Thrombin_STARD4(2-205;C75S) plasmid was a gift from Young Jun Im (Chonnam National University).5 STARD5A was a gift from Nicola Burgess-Brown (Addgene plasmid #42392; http://n2t.net/addgene:42392; […]
(§4) Protein expression and purification […]
(§5) vectors including an N-terminal PreScission-cleavable glutathione S-transferase (GST)-tag were expressed in Escherichia coli (E. coli) OverExpress C41 in Terrific Broth (TB) medium for 16 h at 18 °C after the induction with 0.1 mM isopropyl β-D-1-thiogalactopyranoside (IPTG). Cells were harvested at 3500 × g for 15 minutes and lysed by sonication in buffer containing 50 mM HEPES pH 7.5, 300 mM NaCl, 10 %v/v glycerol, 5 mM dithiothreitol (DTT), 0.1 %v/v Triton X-100 and protease inhibitor mix HP plus (Serva). The lysate was purified by affinity chromatography on a GSTrap FF column (Cytiva) using an ÄKTA Start (Cytiva) in buffer containing 50 mM HEPES pH 7.5, 300 mM NaCl, 10 %v/v glycerol, 5 mM DTT and 0.01 %v/v Triton X-100. The GST-tag was cleaved overnight on the column at 4 °C. The Aster sterol binding domains were further purified by size-exclusion chromatography (SEC) on a HiLoad 16/600 Superdex 75 pg (Cytiva) in buffer containing 20 mM HEPES pH 7.5, 300 mM NaCl, 10 %v/v […]
(§6) STARD5(6-213) harboring an N-terminal His6-Tag were expressed in E. coli BL21(DE3) in Luria-Bertani Broth (LB) medium for approximately 16 h at 18 °C after induction with 0.15 mM IPTG. Cells were harvested at 3500 × g for 15 minutes and lysed by sonication in buffer containing 50 mM HEPES pH 7.5, 150 mM NaCl, 5 %v/v glycerol, 5 mM DTT, 0.1 %v/v Triton X -100 and ethylenediaminetetraacetic acid (EDTA)-free protease inhibitor cocktail (Sigma-Aldrich). The cleared lysate was purified by affinity chromatography on a Ni-NTA Superflow Cartridge (Qiagen) using an ÄKTA Start (Cytiva) in buffer containing 50 mM HEPES pH 7.5, 150 mM NaCl, 5 %v/v glycerol, 5 mM DTT. START domains were eluted by using elution buffer containing 50 mM HEPES pH 7.5, 150 mM NaCl, 5 %v/v glycerol, 5 mM DTT and 500 mM imidazole. Proteins were further purified by SEC on a HiLoad 16/600 Superdex 75 pg (Cytiva) in buffer containing 20 mM HEPES pH 7.5, 150 mM NaCl, 5 %v/v glycerol and 2 mM DTT.
(§7) The ORP domain of human OSBP(377-807) in the pGEX-6p-1 vector with an N-terminal PreScission-cleavable GST-tag was expressed in E. coli OverExpress C41 in LB medium for 16 h at 18 °C after induction with 0.1 mM IPTG. Cells were harvested at 3500 × g for 15 minutes and lysed by sonication in buffer containing 20 mM HEPES pH 7.5, 300 mM NaCl, 10 %v/v glycerol, 5 mM DTT, 0.1 %v/v Triton X-100 and EDTA-free protease inhibitor cocktail (Sigma-Aldrich). The cleared lysate was purified by affinity chromatography on a GSTrap HF column (Cytiva) using an ÄKTA Start (Cytiva) in buffer containing 20 mM HEPES pH 7.5, 300 mM NaCl, 10 %v/v glycerol, 5 mM DTT. OSBP(377 -807) was eluted by using elution buffer containing 20 mM HEPES pH 7.5, 300 mM NaCl, 10 %v/v glycerol, 5 mM DTT and 10 mM reduced glutathione. Proteins were further purified by SEC on a HiLoad 16/600 Superdex 75 pg (Cytiva) using an ÄKTA Explorer (Cytiva) in buffer containing 20 mM HEPES pH 7.5, 150 mM NaCl, 10 %v/v glycerol and 2 mM DTT.
(§8) The ORP domains of human ORP1(534-950) in pET24b(+) and ORP2(49-480) in the pET24b(+) vector including an N-terminal His6-Tag were expressed in E. coli BL21(DE3) in TB medium for approximately 16 h at 18 °C after induction with 0.1 mM IPTG. Cells were collected at 3500 × g for 15 minutes and lysed by sonification in buffer containing 10 mM Tris-HCl pH 8, 300 mM NaCl, 5 % glycerol, 2 mM DTT, 0.1 % Triton X-100 and EDTA-free protease inhibitor cocktail (Sigma-Aldrich). The cleared […]

[2] = biological target: T2, ORP2 (Homo sapiens, UniProt Q9H1P3); assay: Fluorescence polarisation (FP) competition with NBD-cholesterol, ORP2; format: binding; settings: for IC50: mean of three experiments run in technical duplicates; for inhibition at 10 µM / ORP2 (FP) inhibition: single dose, Dose = 10 µM
T2 construct: ORP2(49-480); host or cells: E. coli BL21(DE3)
T2 sequence (Q9H1P3 49-480): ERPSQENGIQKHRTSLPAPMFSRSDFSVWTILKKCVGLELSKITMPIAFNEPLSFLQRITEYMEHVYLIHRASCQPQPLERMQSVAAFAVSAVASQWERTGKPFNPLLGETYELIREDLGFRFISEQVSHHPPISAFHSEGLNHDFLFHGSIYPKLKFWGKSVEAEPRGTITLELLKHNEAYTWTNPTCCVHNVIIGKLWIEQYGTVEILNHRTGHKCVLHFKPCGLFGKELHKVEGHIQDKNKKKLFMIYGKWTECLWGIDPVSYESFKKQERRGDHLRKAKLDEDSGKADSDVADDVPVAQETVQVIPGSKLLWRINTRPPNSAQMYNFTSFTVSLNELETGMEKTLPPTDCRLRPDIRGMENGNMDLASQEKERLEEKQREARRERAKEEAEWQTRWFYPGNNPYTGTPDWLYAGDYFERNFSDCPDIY
From the text: as §1, §2, §3, §4, §5, §6, §7, §8

SMILES | IC50 [1] | inhibition at 10 µM [1] | IC50 [2] | inhibition at 10 µM [2] | Aster-A (FP) inhibition [1] | ORP2 (FP) inhibition [2]
C[C@]12CC[C@@H]3C[C@H]1CC[C@@]21C(=Nc2ccc(Br)cc21)O3 (racemic) [Compound 15b] | 4.3 µM | 67% | 7.14 µM | 29% | – | –
CC12CCC3CC1CCC21C(=Nc2ccc(N4CCOCC4)cc21)O3 (racemic) [Compound 19a] | 0.77 µM | 60% | > 80 µM | 27% | – | –
CC12CCC3CC1CCC21C(=Nc2ccc(Br)cc21)O3 (single isomer, unassigned; (+)) [(+)-15b] | 35 µM | 2% | > 80 µM | 35% | – | –
CC12CCC3CC1CCC21C(=Nc2ccc(N4CCOCC4)cc21)O3 (single isomer, unassigned; (+)) [(+)-19a] | 15.4 µM | – | > 80 µM | – | 12% | 7%
CC12CCC3CC1CCC21C(=Nc2ccc(N4CCOCC4)cc21)O3 (single isomer, unassigned; (-)) [(−)-19a] | 0.46 µM | – | > 50 µM | – | 79% | 32%
C[C@@]12CC[C@H]3C[C@@H]1CC[C@]21C(=Nc2ccc(Br)cc21)O3 [(−)-15b] | 4.14 µM | 80% | 5.85 µM | 60% | – | –
CC(C)Oc1ccc(C(=O)Nc2nc3c(s2)CN(C(=O)OC(C)(C)C)CC3)cc1 [Autogramin-2, reference compound] | 1.09 µM | – | 6.83 µM | – | 70% | 18%
Cc1c2c(nc3ccccc13)[C@@]1(C)CC[C@@H](O)C[C@H]1CC2 [Compound 2a] | – | 1% | – | 43.5% | – | –
C[C@]12CC[C@@H](O)C[C@H]1CCc1c2nc2ccccc2c1-c1ccccc1 [Compound 2b] | – | – | – | – | -2% | 14%
Cc1c2c(nc3cc(Br)ccc13)[C@@]1(C)CC[C@@H](O)C[C@H]1CC2 [Compound 2c] | – | – | – | – | -1% | 53%
C[C@]12CC[C@@H](O)C[C@H]1CCc1c2nc2ccccc2c1-c1ccc(F)cc1 [Compound 2d] | – | -6% | – | 14% | – | –
C[C@]12CC[C@@H](O)C[C@H]1CCc1c2nc2ccc(Cl)cc2c1-c1ccccc1 [Compound 2e] | – | – | – | – | -4% | 15%
C[C@]12CC[C@@H](O)C[C@H]1CCc1c2[nH]c2ncccc12 [Compound 3] | – | -2% | – | 2% | – | –
C[C@]12CC[C@@H](O)C[C@H]1CCC[C@]21Nc2ccccc2-n2cccc21 [Compound 4] | – | -9% | – | 12% | -8% | 25%
C[C@]12CC[C@@H](O)C[C@H]1CCC[C@]21NC(=O)c2ccccc2N1 [Compound 5a] | – | 0% | – | 6% | -2% | 11%
C[C@]12CC[C@@H](O)C[C@H]1CCC[C@]21NC(=O)c2ccc(F)cc2N1 [Compound 5b] | – | -1% | – | 7% | -2% | 2%
COc1ccc2c(c1)C(=O)N[C@]1(CCC[C@@H]3C[C@H](O)CC[C@@]31C)N2 [Compound 5c] | – | – | – | 24% | -1% | 12%
C[C@]12CC[C@@H](O)C[C@H]1CCc1nc3ccccc3nc12 [Compound 7a] | – | 14% | – | 55% | – | –
Cc1cc2nc3c(nc2cc1C)[C@@]1(C)CC[C@@H](O)C[C@H]1CC3 [Compound 7b] | – | -1% | – | 12% | – | –
C[C@]12CC[C@@H](O)C[C@H]1CCc1nc3cc(F)c(F)cc3nc12 [Compound 7c] | – | – | – | – | -1% | 9%
C[C@]12CC[C@@H](O)C[C@H]1CCc1nc3cc(Cl)c(Cl)cc3nc12 [Compound 7d] | – | – | – | – | 1% | 12%
C[C@]12CC[C@@H](O)C[C@H]1CCc1nc3cc(Br)c(Br)cc3nc12 [Compound 7e] | – | – | – | – | -1% | 27%
C[C@]12CC[C@@H](O)C[C@H]1CCc1sc(N)nc12 [Compound 8a] | – | -1% | – | 11% | – | –
Cc1nc2c(s1)CC[C@@H]1C[C@H](O)CC[C@]21C [Compound 8b] | – | – | – | – | -1% | 13%
C[C@]12CC[C@@H](O)C[C@H]1CCc1sc(-c3cccnc3)nc12 [Compound 8c] | – | – | – | – | 0% | 17%
